In ChEMBL document CHEMBL1821675, “The selective P-TEFb inhibitor CAN508 targets angiogenesis” (Eur J Med Chem, 2011):
Calls of active or inactive are those of the source. No cut-off for these calls is given here.

How the values were obtained:
[1] = molecular target: Mitogen-activated protein kinase 1 (Homo sapiens) (UniProt P28482); test: Inhibition of ERK2 assessed as residual activity at 10 uM by radioactivity assay in presence of 20 uM ATP
[2] = molecular target: Cyclin-dependent kinase 7 (Homo sapiens) (UniProt P50613); test: Inhibition of CDK7-catalyzed RNA polymerase 2 phosphorylation at Ser5 in human MCF7 cells at 5 to 40 uM after 2 hrs by immunoblotting; type: cell-based
HUVEC = test: Antiproliferative activity against HUVEC cells assessed as decrease in cell viability at 10 to 40 uM within 72 hrs by calcein AM staining-based fluorescence assay; settings: human
[3] = molecular target: Serine/threonine-protein kinase pim-2 (Homo sapiens) (UniProt Q9P1W9); test: Inhibition of PIM2 assessed as residual activity at 10 uM by radioactivity assay in presence of 5 uM ATP
[4] = molecular target: NUAK family SNF1-like kinase 1 (Homo sapiens) (UniProt O60285); test: Inhibition of NUAK1 assessed as residual activity at 10 uM by radioactivity assay in presence of 20 uM ATP
Sequence of NUAK family SNF1-like kinase 1 (Homo sapiens) (O60285 whole entry): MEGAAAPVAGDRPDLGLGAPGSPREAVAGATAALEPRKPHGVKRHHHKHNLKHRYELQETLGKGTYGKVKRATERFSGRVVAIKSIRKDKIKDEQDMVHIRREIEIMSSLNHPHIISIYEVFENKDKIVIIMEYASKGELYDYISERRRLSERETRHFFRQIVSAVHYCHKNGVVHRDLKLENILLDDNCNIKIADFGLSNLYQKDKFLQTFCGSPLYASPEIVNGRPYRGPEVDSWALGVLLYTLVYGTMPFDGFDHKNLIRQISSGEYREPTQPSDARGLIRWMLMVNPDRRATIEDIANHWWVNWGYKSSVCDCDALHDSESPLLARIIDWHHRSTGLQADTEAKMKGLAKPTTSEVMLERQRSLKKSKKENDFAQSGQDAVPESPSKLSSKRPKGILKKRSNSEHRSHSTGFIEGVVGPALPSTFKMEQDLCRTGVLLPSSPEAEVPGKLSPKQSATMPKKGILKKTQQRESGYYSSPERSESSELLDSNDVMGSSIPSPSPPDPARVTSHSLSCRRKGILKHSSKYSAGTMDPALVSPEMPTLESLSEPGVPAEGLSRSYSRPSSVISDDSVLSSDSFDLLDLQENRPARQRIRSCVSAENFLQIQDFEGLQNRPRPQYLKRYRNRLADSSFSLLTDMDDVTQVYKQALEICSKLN

RXF 393 = test: Cytotoxicity against human RXF393 cells; type: functional
[5] = molecular target: Serine/threonine-protein kinase Chk2 (Homo sapiens) (UniProt O96017); test: Inhibition of CHK2 assessed as residual activity at 10 uM by radioactivity assay in presence of 20 uM ATP
Sequence of Serine/threonine-protein kinase Chk2 (Homo sapiens) (O96017 whole entry): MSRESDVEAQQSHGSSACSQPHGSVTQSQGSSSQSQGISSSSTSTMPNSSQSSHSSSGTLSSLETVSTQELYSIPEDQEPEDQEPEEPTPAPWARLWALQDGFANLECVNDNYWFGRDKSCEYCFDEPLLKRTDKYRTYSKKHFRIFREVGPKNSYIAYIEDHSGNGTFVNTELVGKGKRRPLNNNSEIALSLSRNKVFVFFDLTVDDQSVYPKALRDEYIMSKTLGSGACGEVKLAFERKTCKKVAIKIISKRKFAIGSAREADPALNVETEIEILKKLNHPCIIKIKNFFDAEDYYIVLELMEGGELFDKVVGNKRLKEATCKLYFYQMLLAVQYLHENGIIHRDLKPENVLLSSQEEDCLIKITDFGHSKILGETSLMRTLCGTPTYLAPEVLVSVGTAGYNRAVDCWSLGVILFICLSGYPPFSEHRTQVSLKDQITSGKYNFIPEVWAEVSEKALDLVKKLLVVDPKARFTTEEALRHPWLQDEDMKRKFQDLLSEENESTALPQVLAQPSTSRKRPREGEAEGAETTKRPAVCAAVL

[6] = molecular target: Protein kinase C zeta type (Homo sapiens) (UniProt Q05513); test: Inhibition of PKCzeta assessed as residual activity at 10 uM by radioactivity assay in presence of 5 uM ATP
[7] = molecular target: Interleukin-1 receptor-associated kinase 4 (Homo sapiens) (UniProt Q9NWZ3); test: Inhibition of IRAK4 assessed as residual activity at 10 uM by radioactivity assay in presence of 20 uM ATP
Sequence of Interleukin-1 receptor-associated kinase 4 (Homo sapiens) (Q9NWZ3 whole entry): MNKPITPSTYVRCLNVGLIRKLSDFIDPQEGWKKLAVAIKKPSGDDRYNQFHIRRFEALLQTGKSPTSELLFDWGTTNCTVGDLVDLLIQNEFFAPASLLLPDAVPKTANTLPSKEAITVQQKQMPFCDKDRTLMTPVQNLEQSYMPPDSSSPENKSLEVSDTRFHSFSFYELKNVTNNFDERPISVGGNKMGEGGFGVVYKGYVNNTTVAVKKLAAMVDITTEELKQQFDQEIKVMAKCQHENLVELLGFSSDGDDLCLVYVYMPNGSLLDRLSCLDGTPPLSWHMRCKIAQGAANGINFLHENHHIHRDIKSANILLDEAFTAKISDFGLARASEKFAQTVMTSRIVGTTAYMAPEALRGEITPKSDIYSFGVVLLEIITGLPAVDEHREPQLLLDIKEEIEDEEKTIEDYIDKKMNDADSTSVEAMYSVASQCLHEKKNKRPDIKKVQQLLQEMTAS

IGROV-1 = test: Cytotoxicity against human IGROV1 cells; type: functional
[8] = molecular target: Cyclin-dependent kinase 9 (Homo sapiens) (UniProt P50750); test: Inhibition of CDK9-catalyzed RNA polymerase 2 phosphorylation at Ser2 in human MCF7 cells after 2 hrs by immunoblotting; type: cell-based
[9] = molecular target: MAP/microtubule affinity-regulating kinase 3 (Homo sapiens) (UniProt P27448); test: Inhibition of MARK3 assessed as residual activity at 10 uM by radioactivity assay in presence of 5 uM ATP
[10] = molecular target: SRSF protein kinase 1 (Homo sapiens) (UniProt Q96SB4); test: Inhibition of SRPK1 assessed as residual activity at 10 uM by radioactivity assay in presence of 50 uM ATP
Sequence of SRSF protein kinase 1 (Homo sapiens) (Q96SB4 whole entry): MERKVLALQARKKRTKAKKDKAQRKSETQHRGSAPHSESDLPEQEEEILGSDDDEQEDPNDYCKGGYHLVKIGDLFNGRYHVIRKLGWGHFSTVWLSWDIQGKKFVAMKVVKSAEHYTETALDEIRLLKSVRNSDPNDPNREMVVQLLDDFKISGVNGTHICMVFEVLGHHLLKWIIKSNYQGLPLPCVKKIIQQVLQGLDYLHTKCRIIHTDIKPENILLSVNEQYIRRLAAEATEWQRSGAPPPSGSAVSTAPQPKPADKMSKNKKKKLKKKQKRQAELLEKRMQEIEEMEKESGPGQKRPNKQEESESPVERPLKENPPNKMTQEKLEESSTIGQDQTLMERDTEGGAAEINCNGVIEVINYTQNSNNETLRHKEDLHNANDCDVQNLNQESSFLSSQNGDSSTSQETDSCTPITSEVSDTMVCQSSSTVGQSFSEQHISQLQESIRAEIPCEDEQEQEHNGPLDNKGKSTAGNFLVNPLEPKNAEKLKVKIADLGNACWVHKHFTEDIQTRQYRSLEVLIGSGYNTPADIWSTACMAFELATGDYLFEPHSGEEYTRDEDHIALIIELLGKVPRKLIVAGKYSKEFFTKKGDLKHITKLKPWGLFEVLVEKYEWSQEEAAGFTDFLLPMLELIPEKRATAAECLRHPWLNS

[11] = molecular target: Tyrosine-protein kinase JAK2 (Homo sapiens) (UniProt O60674); test: Inhibition of JAK2 assessed as residual activity at 10 uM by radioactivity assay in presence of 5 uM ATP
Sequence of Tyrosine-protein kinase JAK2 (Homo sapiens) (O60674 whole entry): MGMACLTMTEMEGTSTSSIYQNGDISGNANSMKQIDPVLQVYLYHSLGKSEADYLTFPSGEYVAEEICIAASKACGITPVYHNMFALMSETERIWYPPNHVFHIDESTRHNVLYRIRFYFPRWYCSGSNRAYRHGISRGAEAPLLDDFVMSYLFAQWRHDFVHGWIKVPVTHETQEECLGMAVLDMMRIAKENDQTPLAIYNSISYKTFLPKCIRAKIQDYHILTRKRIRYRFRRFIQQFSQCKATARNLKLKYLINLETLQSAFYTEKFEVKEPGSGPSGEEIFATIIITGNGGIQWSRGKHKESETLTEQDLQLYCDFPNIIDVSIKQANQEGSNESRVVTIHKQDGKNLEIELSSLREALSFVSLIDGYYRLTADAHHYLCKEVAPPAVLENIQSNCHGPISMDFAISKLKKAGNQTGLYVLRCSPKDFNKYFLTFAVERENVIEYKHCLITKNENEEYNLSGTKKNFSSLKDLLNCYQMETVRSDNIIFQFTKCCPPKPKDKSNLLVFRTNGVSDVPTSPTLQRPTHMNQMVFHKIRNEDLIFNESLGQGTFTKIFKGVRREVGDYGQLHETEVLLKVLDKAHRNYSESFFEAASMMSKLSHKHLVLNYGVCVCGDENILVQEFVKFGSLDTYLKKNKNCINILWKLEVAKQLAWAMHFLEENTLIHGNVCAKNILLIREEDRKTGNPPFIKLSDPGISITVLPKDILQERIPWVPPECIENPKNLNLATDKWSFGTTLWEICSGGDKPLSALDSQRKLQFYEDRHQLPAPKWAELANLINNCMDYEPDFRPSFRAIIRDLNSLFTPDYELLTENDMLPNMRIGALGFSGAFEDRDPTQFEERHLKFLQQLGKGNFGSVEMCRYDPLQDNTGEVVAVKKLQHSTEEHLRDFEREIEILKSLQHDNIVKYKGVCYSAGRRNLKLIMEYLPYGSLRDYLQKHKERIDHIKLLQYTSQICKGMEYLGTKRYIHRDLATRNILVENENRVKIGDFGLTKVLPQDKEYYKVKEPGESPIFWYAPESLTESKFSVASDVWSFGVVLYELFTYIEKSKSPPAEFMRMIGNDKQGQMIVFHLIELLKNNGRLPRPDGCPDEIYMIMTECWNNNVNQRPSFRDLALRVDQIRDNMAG

[12] = molecular target: Tyrosine-protein kinase Yes (Homo sapiens) (UniProt P07947); test: Inhibition of YES1 assessed as residual activity at 10 uM by radioactivity assay in presence of 20 uM ATP
[13] = molecular target: Serine/threonine-protein kinase pim-1 (Homo sapiens) (UniProt P11309); test: Inhibition of PIM1 assessed as residual activity at 10 uM by radioactivity assay in presence of 20 uM ATP
HOP-62 = test: Cytotoxicity against human HOP62 cells; type: functional
[14] = molecular target: Myosin light chain kinase, smooth muscle (Homo sapiens) (UniProt Q15746); test: Inhibition of SmMLCK assessed as residual activity at 10 uM by radioactivity assay in presence of 50 uM ATP
[15] = molecular target: Mitogen-activated protein kinase 15 (Homo sapiens) (UniProt Q8TD08); test: Inhibition of ERK8 assessed as residual activity at 10 uM by radioactivity assay in presence of 5 uM ATP
Sequence of Mitogen-activated protein kinase 15 (Homo sapiens) (Q8TD08 whole entry): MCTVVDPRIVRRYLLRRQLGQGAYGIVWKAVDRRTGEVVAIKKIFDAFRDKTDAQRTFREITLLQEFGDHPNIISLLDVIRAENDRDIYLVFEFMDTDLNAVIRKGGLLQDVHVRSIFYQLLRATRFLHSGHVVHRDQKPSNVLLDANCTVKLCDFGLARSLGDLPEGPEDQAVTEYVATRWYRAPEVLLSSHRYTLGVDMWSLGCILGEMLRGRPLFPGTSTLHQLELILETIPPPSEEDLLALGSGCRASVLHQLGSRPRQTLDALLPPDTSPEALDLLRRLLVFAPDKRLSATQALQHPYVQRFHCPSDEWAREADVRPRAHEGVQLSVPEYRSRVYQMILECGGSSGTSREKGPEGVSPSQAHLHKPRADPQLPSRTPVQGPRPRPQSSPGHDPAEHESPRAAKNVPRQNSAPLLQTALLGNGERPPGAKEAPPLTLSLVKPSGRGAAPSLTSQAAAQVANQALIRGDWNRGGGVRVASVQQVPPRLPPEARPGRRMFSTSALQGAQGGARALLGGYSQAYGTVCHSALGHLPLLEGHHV

[16] = molecular target: 3-phosphoinositide-dependent protein kinase 1 (Homo sapiens) (UniProt O15530); test: Inhibition of PDK1 assessed as residual activity at 10 uM by radioactivity assay in presence of 20 uM ATP
[17] = molecular target: Serine/threonine-protein kinase pim-3 (Homo sapiens) (UniProt Q86V86); test: Inhibition of PIM3 assessed as residual activity at 10 uM by radioactivity assay in presence of 20 uM ATP
[18] = molecular target: Misshapen-like kinase 1 (Homo sapiens) (UniProt Q8N4C8); test: Inhibition of MINK1 assessed as residual activity at 10 uM by radioactivity assay in presence of 50 uM ATP
SN12C = test: Cytotoxicity against human SN12C cells; type: functional
[19] = molecular target: Ribosomal protein S6 kinase alpha-1 (Homo sapiens) (UniProt Q15418); test: Inhibition of RSK1 assessed as residual activity at 10 uM by radioactivity assay in presence of 50 uM ATP
[20] = molecular target: Serine/threonine-protein kinase 3 (Homo sapiens) (UniProt Q13188); test: Inhibition of MST2 assessed as residual activity at 10 uM by radioactivity assay in presence of 20 uM ATP
COLO 205 = test: Cytotoxicity against human COLO205 cells; type: functional
[21] = molecular target: Serine/threonine-protein kinase BRSK2 (Homo sapiens) (UniProt Q8IWQ3); test: Inhibition of BRSK2 assessed as residual activity at 10 uM by radioactivity assay in presence of 50 uM ATP
CCRF-CEM = test: Cytotoxicity against human CCRF-CEM cells; type: functional
MCF7 = test: Inhibition of RNA synthesis in human MCF7 cells assessed as decrease in [3H] Uridine incorporation after 2 hrs by scintillation counting; type: functional, cell-based
[22] = molecular target: Calcium/calmodulin-dependent protein kinase kinase 2 (Homo sapiens) (UniProt Q96RR4); test: Inhibition of CAMKKbeta assessed as residual activity at 10 uM by radioactivity assay in presence of 20 uM ATP
Sequence of Calcium/calmodulin-dependent protein kinase kinase 2 (Homo sapiens) (Q96RR4 2-588 limits assumed): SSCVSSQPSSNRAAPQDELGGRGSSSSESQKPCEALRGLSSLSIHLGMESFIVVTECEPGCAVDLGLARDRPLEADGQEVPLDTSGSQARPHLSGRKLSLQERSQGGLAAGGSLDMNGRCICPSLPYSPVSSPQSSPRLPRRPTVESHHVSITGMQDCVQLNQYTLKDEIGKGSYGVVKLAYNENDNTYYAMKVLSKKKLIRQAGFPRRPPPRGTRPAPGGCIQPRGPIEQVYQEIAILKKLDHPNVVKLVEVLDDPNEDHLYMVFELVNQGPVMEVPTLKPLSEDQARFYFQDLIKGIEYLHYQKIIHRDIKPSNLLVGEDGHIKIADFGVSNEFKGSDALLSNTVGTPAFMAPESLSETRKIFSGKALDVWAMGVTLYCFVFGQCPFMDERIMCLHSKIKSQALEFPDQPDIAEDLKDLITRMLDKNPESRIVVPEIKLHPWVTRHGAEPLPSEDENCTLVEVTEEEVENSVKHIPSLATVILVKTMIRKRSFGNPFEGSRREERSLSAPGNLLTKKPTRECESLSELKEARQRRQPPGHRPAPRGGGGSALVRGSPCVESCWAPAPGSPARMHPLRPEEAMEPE

SF-295 = test: Cytotoxicity against human SF295 cells; type: functional
[23] = molecular target: Tyrosine-protein kinase SYK (Homo sapiens) (UniProt P43405); test: Inhibition of SYK assessed as residual activity at 10 uM by radioactivity assay in presence of 20 uM ATP
[24] = Inhibition of VEGFR assessed as residual activity at 10 uM by radioactivity assay in presence of 20 uM ATP
DU-145 = test: Decrease in VEGF expression in human DU145 cells at >10 uM after 24 hrs by sandwich ELISA; type: functional, cell-based
HCT-15 = test: Cytotoxicity against human HCT15 cells; type: functional
[25] = molecular target: Ephrin type-B receptor 3 (Homo sapiens) (UniProt P54753); test: Inhibition of EPH-B3 assessed as residual activity at 10 uM by radioactivity assay in presence of 20 uM ATP
[26] = molecular target: Homeodomain-interacting protein kinase 1 (Homo sapiens) (UniProt Q86Z02); test: Inhibition of HIPK1 assessed as residual activity at 10 uM by radioactivity assay in presence of 20 uM ATP

In the case of `Nc1n[nH]c(N)c1/N=N/c1ccc(O)cc1`, the Activity [1] is reported as 106%, the inhibition [2] is reported as “Active” and the Activity (HUVEC) is reported as “Non-toxic”. For the same compound, the Activity [3] was 69%, the Activity [4] was 40% and the GI50 (RXF 393) was 18.4 µM. For the same compound, the Activity [5] was 57%, the Activity [6] was 74% and the Activity [7] was 58%. The GI50 (IGROV-1) was 20.6 µM, the inhibition [8] was “Dose-dependent effect” and the Activity [9] was 50%. The Activity [10] was 85%, the Activity [11] was 19% and the Activity [12] was 79%. The Activity [13] was 40%, the GI50 (HOP-62) was 31.8 µM and the Activity [14] was 54%. The Activity [15] was 17%, the Activity [16] was 66% and the Activity [17] was 19%. For the same compound, the Activity [18] was 29%, the GI50 (SN12C) was 23.3 µM and the Activity [19] was 93%. It also gave an Activity [20] of 57%, a GI50 (COLO 205) of 18.9 µM and an Activity [21] of 62%. It also gave a GI50 (CCRF-CEM) of 20 µM, an IC50 (MCF7) of 15 µM and an Activity [22] of 52%. For the same compound, the GI50 (SF-295) was 23.3 µM, the Activity [23] was 94% and the Activity [24] was 42%. The Activity (DU-145) was “Active”, the GI50 (HCT-15) was 24.2 µM and the Activity [25] was 45%. For the same compound, the Activity [26] was 106%.
